In PubChem BioAssay (NCI):
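Interpolation was linear, between the two tested concentrations surrounding the appropriate level; five concentrations were tested over 48 hours in 96-well plates. GI50 = concentration required for 50% inhibition of growth. Definition used: TGI = concentration required for complete inhibition of growth.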

Experiments:
Experiment in all cases: growth of human tumour cells (NCI), 48 h
HOP-62 NSCLC = system: HOP-62 NSCLC
DU-145 prostate = system: DU-145 prostate
SNB-75 CNS = system: SNB-75 CNS
UO-31 renal = system: UO-31 renal
SW-620 colon = system: SW-620 colon
MDA-N = system: MDA-N
RPMI-8226 leukemia = system: RPMI-8226 leukemia
A549 NSCLC = system: A549 NSCLC
NCI-H522 lung = system: NCI-H522 lung
OVCAR-5 ovarian = system: OVCAR-5 ovarian
OVCAR-4 ovarian = system: OVCAR-4 ovarian
SR leukemia = system: SR leukemia
UACC-257 melanoma = system: UACC-257 melanoma
MALME-3M melanoma = system: MALME-3M melanoma
UACC-62 melanoma = system: UACC-62 melanoma

Row | Compound | TGI (HOP-62 NSCLC) [µM] | TGI (DU-145 prostate) [µM] | TGI (SNB-75 CNS) [µM] | TGI (UO-31 renal) [µM] | TGI (SW-620 colon) [µM] | TGI (MDA-N) [µM] | TGI (RPMI-8226 leukemia) [µM] | TGI (A549 NSCLC) [µM] | TGI (NCI-H522 lung) [µM] | TGI (OVCAR-5 ovarian) [µM] | TGI (OVCAR-4 ovarian) [µM] | TGI (SR leukemia) [µM] | TGI (UACC-257 melanoma) [µM] | TGI (MALME-3M melanoma) [µM] | TGI (UACC-62 melanoma) [µM] | GI50 (RPMI-8226 leukemia) [µM] | GI50 (A549 NSCLC) [µM] | GI50 (NCI-H522 lung) [µM] | GI50 (OVCAR-5 ovarian) [µM] | GI50 (UACC-257 melanoma) [µM]
1 | OCc1cn(C(c2ccccc2)(c2ccccc2)c2ccccc2)cn1 | > 100 | > 100 | 68.5 | > 100 | > 100 | > 100 | > 100 | > 100 | > 100 | > 100 | > 100 | > 100 | > 100 |  |  |  |  |  |  | 
2 | COc1ccc(C2NC(=S)Nc3c2c(=O)oc2c3ccc3ccccc32)cc1 (stereo not drawn) | > 100 | > 100 | 96.4 | > 100 | > 100 | > 100 | > 100 | > 100 | > 100 | > 100 | > 100 | > 100 | > 100 | > 100 | > 100 |  |  |  |  | 
3 | COCCNCc1ccc(-c2cc3nccc(Oc4ccc(NC(=S)NC(=O)Cc5ccc(F)cc5)cc4F)c3s2)nc1 |  |  |  |  |  |  | 5.13 | 3.29 | 6.5 | 13.6 |  |  | 3.52 |  |  | 2.04 | 1.72 | 2.51 | 3.05 | 1.84
4 | CN(C)c1ccc(C=Nc2ccc(-c3nc4ccccc4[nH]3)cc2)cc1 | > 100 | > 100 | > 100 | > 100 | > 100 | > 100 | > 100 | > 100 | > 100 | > 100 | > 100 | 65.1 | > 100 | > 100 |  |  |  |  |  | 
5 | Clc1ccccc1/C=c1\nc(-c2ccccc2)n2c1nc1ccccc12 | 50.3 | > 100 |  | > 100 | > 100 | > 100 | > 100 | > 100 |  | > 100 | > 100 |  | > 100 | > 100 | > 100 |  |  |  |  | 
6 | Cn1c(=O)[nH]c2nncnc2c1=O | 181 |  | 117 | 358 | > 625 |  | 389 | > 525 | > 516 | > 625 | > 319 |  | 302 | 119 | 146 |  |  |  |  | 
7 | O=c1[nH]c2nnc(COc3ccc(Cl)cc3Cl)n2nc1Cc1ccccc1 | > 100 | > 100 | 38.8 | > 100 | > 100 | > 100 | > 100 | > 100 | > 100 | > 100 | > 100 | > 100 | > 100 | > 100 |  |  |  |  |  | 
8 | O=C(CSc1nc2ccc([N+](=O)[O-])cc2s1)c1ccc2ccccc2c1 | > 100 | > 100 | > 100 | > 100 | > 100 | > 100 | > 100 | > 100 | > 100 | > 100 | > 100 |  | > 100 | > 100 | > 100 |  |  |  |  | 
9 | C[N+]1(CCC(=O)c2ccco2)CC2CCC(CC2)C1 (stereo not drawn) |  | > 100 | > 100 | > 100 | > 100 | > 100 | > 100 | > 100 | > 100 | > 100 | > 100 | > 100 | > 100 | > 100 | > 100 |  |  |  |  | 
10 | COc1ccc2nc3c(C(=O)NCCN(C)C)cccc3cc2c1 | 7.71 |  | 9 | 3.97 | 5.1 |  | 6.23 | 5.26 |  | 5.9 | 8.49 |  | 5.01 | > 21.4 | 3.33 |  |  |  |  | 
11 | COc1c(CC=C(C)C)c(O)c(C(CC(C)C)c2c(O)c3c(c(C(C)=O)c2O)OC(C(C)(C)O)C3)c(O)c1C(C)=O (stereo not drawn) | > 12.5 | > 12.5 | > 12.5 | > 12.5 | > 12.5 | > 12.5 | 3.19 | > 12.5 | > 12.5 | > 12.5 | > 12.5 | 6.93 | 12.4 | > 12.5 | > 12.5 |  |  |  |  | 
12 | O=c1ccc2nc3cc(Br)ccc3sc-2c1 | > 100 |  | > 100 | > 100 | > 100 |  |  | > 100 | > 100 | > 100 | > 100 | > 100 | > 100 | > 100 | > 100 |  |  |  |  | 
13 | O=c1[nH]c(Nc2ccc(Cl)c(C(F)(F)F)c2)nc2nc[nH]c12 | > 100 | > 100 | > 100 | > 100 | > 100 | > 100 | > 100 | > 100 | 34.3 | > 100 | > 100 |  | > 100 | > 100 | > 100 |  |  |  |  | 
14 | c1ccc(-c2nnn3c2NC2=C(CCCC2)C3c2ccccc2)cc1 (stereo not drawn) | 39.2 | 33.3 |  | 34.1 | 28.9 | 32.3 | 31.9 | 32.8 | 19.9 | 36.9 |  | 31.1 | 52.2 |  | 33.7 |  |  |  |  | 
15 | CC1=CC(=O)CC(C)(C)C1/C=C/C(C)=C/C=C/C(C)=C/C=C/C=C(C)/C=C/C=C(C)/C=C/C1C(C)=CC(=O)CC1(C)C (stereo not drawn) | > 100 | > 100 |  | > 100 | > 100 | > 100 | > 100 |  | 52.1 | > 100 | > 100 | > 100 | > 100 |  |  |  |  |  |  | 
